Laboratory results published in patent US7138233B2, “IN vitro sorting method” (Medical Research Council, priority 1997, dated 2006).

How the values were obtained:
[1] = system: E. coli S30 coupled in vitro transcription-translation system; experiment: Self-methylation of M.EcoRI gene in coupled in vitro transcription/translation, resistance to cleavage by EcoRI; assay type: biochemical; conditions: translation inhibited, in the presence of puromycin
Experimental: The PCR-amplified DNA-methylases genes described above are expressed in a prokaryotic in vitro coupled transcription/translation system designed for linear templates (Lesley et al., 1991). A commercial preparation of this system is used (E. coli S30 Extract System for Linear Templates; Promega) supplemented with T7 RNA polymerase and S-adenosyl methionine (SAM) at 80 μM concentration.
Methylation is assayed by measuring the resistance of DNA fragments labelled with DIG and biotin to cleavage by the cognate restriction enzyme using the Boehringer-Mannheim DIG-Biotin ELISA or with radioactively labelled DNA fragments and streptavidin coated magnetic beads. […] The absorbance (at 450 minus 650 nm) is measured after quenching with 0.5M H2SO4 (130 μl/well).
For the radioactive assay, the plasmids and PCR fragments described above are amplified by PCR using primers LMB2-Biotin (SEQ. ID. No. 9) and LMB3 and α-P^32-CTP to give P^32-labelled DNA fragments labelled at one end by biotin and which carry the T7 RNA polymerase promoter, the phage T7 gene 10 translational start site, the methyltransferase gene and the relevant M/R sites. […] The amount of radioactively-labelled DNA on the beads and in the supernatants is determined by scintillation. […]

[2] = system: coupled transcription-translation reaction; experiment: Production of active DHFR in a 2 hour coupled transcription-translation reaction; assay type: biochemical, E. coli; conditions: 0.1 mM, alone or in combination; 2 hour reaction

Row | Molecule | resistance to cleavage by EcoRI [1] | inhibition of the production of active DHFR [2]
1 | COc1ccc(C[C@H](N)C(=O)N[C@H]2[C@@H](O)[C@H](n3cnc4c(N(C)C)ncnc43)O[C@@H]2CO)cc1 [puromycin] | not observed | 
2 | NADPH |  | does not cause any inhibition
